Our source for the T/C values is PubChem BioAssay AID256 (DTP/NCI, 2004).

In the assay the test system is CD2F1 mice, L1210 leukemia ip, survival T/C. The assay is described as follows: NCI In Vivo Anticancer Drug Screen. Data for tumor model L1210 Leukemia (intraperitoneal) in CD2F1 (CDF1) mice. The conditions noted are these: higher = longer survival. In a few lines:
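Mice carrying a transplanted tumor received test compound or vehicle alone. The value is the measurement in the treated group divided by that in the vehicle-treated control group.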

Where [1] appears, read: endpoint: mean survival time, dose: 100.0 mg/kg/injection, schedule: Q04DX003 (ip), vehicle: saline with Tween-80.
Setting [2] is: endpoint: mean survival time, dose: 200.0 mg/kg/injection, schedule: Q04DX003 (ip), vehicle: saline with Tween-80.
Where [3] appears, read: endpoint: mean survival time, dose: 400.0 mg/kg/injection, schedule: Q04DX003 (ip), vehicle: saline with Tween-80.
Where [4] appears, read: endpoint: mean survival time, dose: 25.0 mg/kg/injection, schedule: Q01DX009 (ip), vehicle: saline with Tween-80.
Where [5] appears, read: endpoint: mean survival time, dose: 50.0 mg/kg/injection, schedule: Q01DX009 (ip), vehicle: saline with Tween-80.
[6] abbreviates: endpoint: mean survival time, dose: 100.0 mg/kg/injection, schedule: Q01DX009 (ip), vehicle: saline with Tween-80.
Setting [7] is: endpoint: mean survival time, dose: 200.0 mg/kg/injection, schedule: Q01DX009 (ip), vehicle: saline with Tween-80.
The mark [8] stands for this setting: endpoint: mean survival time, dose: 400.0 mg/kg/injection, schedule: Q01DX009 (ip), vehicle: saline with Tween-80.

Several values for one entry are separate records, joined by “and”; a condition that tells them apart may be missing. Identical values can stand only once. Inconclusive results and toxic doses are left out.

Take `N#Cc1ccc(CO)cc1Br`: the T/C was 97 % of control (endpoint: mean survival time, dose: 100.0 mg/kg/injection, schedule: Q04DX003 (ip), vehicle: saline); 90 % of control (endpoint: mean survival time, dose: 200.0 mg/kg/injection, schedule: Q04DX003 (ip), vehicle: saline); 92 % of control (endpoint: mean survival time, dose: 400.0 mg/kg/injection, schedule: Q04DX003 (ip), vehicle: saline).

Turning to `N#CSCc1cc(Cl)c(CSC#N)c(Cl)c1Cl`, the T/C was 101 % of control (endpoint: mean survival time, dose: 75.0 mg/kg/injection, schedule: Q04DX003 (ip), vehicle: saline); 96 % of control (endpoint: mean survival time, dose: 150.0 mg/kg/injection, schedule: Q04DX003 (ip), vehicle: saline); 97 % of control (endpoint: mean survival time, dose: 300.0 mg/kg/injection, schedule: Q04DX003 (ip), vehicle: saline).

With `O=C(CCCCC(=O)Nc1ccc(C2=NCCN2)cc1)Nc1ccc(C2=NCCN2)cc1`, the T/C is, setting by setting: (endpoint: mean survival time, dose: 75.0 mg/kg/injection, schedule: Q01DX009 (ip), vehicle: saline) 168 % of control; (endpoint: mean survival time, dose: 150.0 mg/kg/injection, schedule: Q01DX009 (ip), vehicle: saline) 216 % of control; (endpoint: mean survival time, dose: 300.0 mg/kg/injection, schedule: Q01DX009 (ip), vehicle: saline) 236 % of control.

For `CC(C)(C)C(=O)/C(O)=C\c1ccccc1`, the T/C runs as follows: (endpoint: mean survival time, dose: 100.0 mg/kg/injection, schedule: Q01DX001 (ip), vehicle: saline) 105 % of control; (endpoint: mean survival time, dose: 200.0 mg/kg/injection, schedule: Q01DX001 (ip), vehicle: saline) 100 % of control; (endpoint: mean survival time, dose: 400.0 mg/kg/injection, schedule: Q01DX001 (ip), vehicle: saline) 98 % of control.

On to `O=C(O)c1ccccc1SCCO`, for which the T/C is 93 % of control (endpoint: mean survival time, dose: 100.0 mg/kg/injection, schedule: Q01DX001 (ip), vehicle: Klucel (hydroxypropylcellulose) (HPC)); 102 % of control (endpoint: mean survival time, dose: 200.0 mg/kg/injection, schedule: Q01DX001 (ip), vehicle: Klucel (hydroxypropylcellulose) (HPC)); 104 % of control (endpoint: mean survival time, dose: 400.0 mg/kg/injection, schedule: Q01DX001 (ip), vehicle: Klucel (hydroxypropylcellulose) (HPC)).

`CC1(C(=O)O)CCOC1=O` (configuration not stated): the T/C (endpoint: mean survival time, dose: 100.0 mg/kg/injection, schedule: Q04DX002 (ip), vehicle: saline) is 102 % of control and the T/C (endpoint: mean survival time, dose: 200.0 mg/kg/injection, schedule: Q04DX002 (ip), vehicle: saline) was 107 % of control.

For the compound `N/N=C(\C(=N\N)c1ccccc1)c1ccccc1`, the T/C was 95 % of control under setting [1], 93 % of control under setting [2] and 89 % of control under setting [3].

Consider `Cc1cc(NC(=O)NCc2ccc(N3C(N)=NC(N)=NC3(C)C)cc2)ccc1S(=O)(=O)F`, for which the T/C is 101 % of control (endpoint: mean survival time, dose: 12.5 mg/kg/injection, schedule: Q01DX009 (ip), vehicle: saline with Tween-80); 106 % of control under setting [4]; 104 % of control under setting [5]; 123 % of control under setting [6].

Consider `NSc1ccc([N+](=O)[O-])cc1`, for which the T/C is 270 % of control (endpoint: mean survival time, dose: 25.0 mg/kg/injection, schedule: Q01DX001 (ip), vehicle: other) and 204 % of control (endpoint: mean survival time, dose: 50.0 mg/kg/injection, schedule: Q01DX001 (ip), vehicle: other).

As to `CN(C)c1ccn(C2OC(CO)C(O)C2SC(C)(C)C)c(=O)n1` (configuration not stated), the T/C was 100 % of control (endpoint: median survival time, dose: 12.5 mg/kg/injection, schedule: Q01DX005 (ip), vehicle: saline); 99 % of control (endpoint: median survival time, dose: 25.0 mg/kg/injection, schedule: Q01DX005 (ip), vehicle: saline); 97 % of control (endpoint: median survival time, dose: 50.0 mg/kg/injection, schedule: Q01DX005 (ip), vehicle: saline); 104 % of control (endpoint: median survival time, dose: 100.0 mg/kg/injection, schedule: Q01DX005 (ip), vehicle: saline); 96 % of control (endpoint: median survival time, dose: 200.0 mg/kg/injection, schedule: Q01DX005 (ip), vehicle: saline).

On to `[Cl][Pt+2][Cl].[NH-]CC(O)c1ccc2oc3ccccc3c2c1.[NH-]CC(O)c1ccc2oc3ccccc3c2c1` (configuration not stated), for which the T/C reads like this: (endpoint: median survival time, dose: 10.0 mg/kg/injection, schedule: Q04DX003 (ip), vehicle: saline) 104 % of control; (endpoint: median survival time, dose: 20.0 mg/kg/injection, schedule: Q04DX003 (ip), vehicle: saline) 108 % of control; (endpoint: median survival time, dose: 40.0 mg/kg/injection, schedule: Q04DX003 (ip), vehicle: saline) 104 % of control; (endpoint: median survival time, dose: 80.0 mg/kg/injection, schedule: Q04DX003 (ip), vehicle: saline with Tween-80) 109 % of control; (endpoint: median survival time, dose: 80.0 mg/kg/injection, schedule: Q04DX003 (ip), vehicle: saline) 108 % of control.

Consider `CCOC(=O)CCOc1ccc(Cl)cc1`, for which the T/C by setting is: under setting [6], 95 % of control; under setting [1], 89 % of control; under setting [7], 97 % of control; under setting [2], 93 % of control; under setting [8], 104 % of control; under setting [3], 91 % of control.

Consider `O=C(O)/C=C/C(=O)Nc1cccc2c1C(=O)c1ccccc1-2`, for which the T/C is 97 % of control under setting [4], 94 % of control under setting [5] and 102 % of control under setting [6].

In the case of `O=C1OC(OC(=O)c2ccccc2)C(Nc2ccccc2)=C1Br` (configuration not stated), the T/C under setting [6] was 101 % of control, the T/C under setting [7] is 101 % of control and the T/C under setting [8] is 97 % of control.

With `CC(=O)NC(Cc1ccc(F)cc1)C(=O)O` (configuration not stated), the T/C is 95 % of control and 97 % of control under setting [4]; 97 % of control and 98 % of control under setting [5]; 95 % of control and 103 % of control under setting [6]; 95 % of control and 101 % of control under setting [7]; 98 % of control and 101 % of control under setting [8]; 97 % of control and 105 % of control (endpoint: mean survival time, dose: 800.0 mg/kg/injection, schedule: Q01DX009 (ip), vehicle: saline with Tween-80).

Take `CC(=O)NCC1(c2ccccc2)CCN(CCCC(=O)c2ccc(F)cc2)CC1`: the T/C was 95 % of control (endpoint: mean survival time, dose: 25.0 mg/kg/injection, schedule: Q04DX003 (ip), vehicle: Klucel (hydroxypropylcellulose) (HPC)); 100 % of control (endpoint: mean survival time, dose: 50.0 mg/kg/injection, schedule: Q04DX003 (ip), vehicle: Klucel (hydroxypropylcellulose) (HPC)); 95 % of control (endpoint: mean survival time, dose: 100.0 mg/kg/injection, schedule: Q04DX003 (ip), vehicle: Klucel (hydroxypropylcellulose) (HPC)).

Turning to `C1=C(CCc2c[nH]c3ccccc23)CCN(CCc2ccccc2)C1`, the T/C (endpoint: mean survival time, dose: 50.0 mg/kg/injection, schedule: Q01DX009 (ip), vehicle: Klucel (hydroxypropylcellulose) (HPC)) was 103 % of control; the T/C (endpoint: mean survival time, dose: 100.0 mg/kg/injection, schedule: Q01DX009 (ip), vehicle: Klucel (hydroxypropylcellulose) (HPC)) was 95 % of control; the T/C (endpoint: mean survival time, dose: 200.0 mg/kg/injection, schedule: Q01DX009 (ip), vehicle: Klucel (hydroxypropylcellulose) (HPC)) is 122 % of control.

For `O=[N+]([O-])C1CC=CCC1C(Cl)(Cl)Cl` (configuration not stated), the T/C was 97 % of control (endpoint: mean survival time, dose: 5.0 mg/kg/injection, schedule: Q01DX009 (ip), vehicle: saline with Tween-80) and 103 % of control (endpoint: mean survival time, dose: 10.0 mg/kg/injection, schedule: Q01DX009 (ip), vehicle: saline with Tween-80).

For the compound `CCOC(=O)c1c(C)c2c(n1C)CC/C(=C\N1CCN(c3ccccc3)CC1)C2=O`, the T/C is 93 % of control (endpoint: mean survival time, dose: 100.0 mg/kg/injection, schedule: Q04DX002 (ip), vehicle: saline with Tween-80); 89 % of control (endpoint: mean survival time, dose: 200.0 mg/kg/injection, schedule: Q04DX002 (ip), vehicle: saline with Tween-80); 86 % of control (endpoint: mean survival time, dose: 400.0 mg/kg/injection, schedule: Q04DX002 (ip), vehicle: saline with Tween-80).

Regarding `O=c1[nH]nc(OCc2ccccc2)c2ncn(Cc3ccccc3)c12`, the T/C reads like this: (endpoint: mean survival time, dose: 12.5 mg/kg/injection, schedule: Q01DX005 (ip), vehicle: other) 91 % of control; (endpoint: mean survival time, dose: 100.0 mg/kg/injection, schedule: Q01DX005 (ip), vehicle: other) 88 % of control; (endpoint: mean survival time, dose: 200.0 mg/kg/injection, schedule: Q01DX005 (ip), vehicle: other) 86 % of control.

For the compound `O=C(CC(Cl)(C(F)(F)F)C(F)(F)F)c1cccc([N+](=O)[O-])c1`, the T/C (endpoint: mean survival time, dose: 12.5 mg/kg/injection, schedule: Q01DX001 (ip), vehicle: saline with Tween-80) is 103 % of control; the T/C (endpoint: mean survival time, dose: 25.0 mg/kg/injection, schedule: Q01DX001 (ip), vehicle: saline with Tween-80) was 100 % of control; the T/C (endpoint: mean survival time, dose: 50.0 mg/kg/injection, schedule: Q01DX001 (ip), vehicle: saline with Tween-80) was 97 % of control and 105 % of control.

For `N#CC(=N)C(C#N)C#N`, the T/C was 93 % of control (endpoint: mean survival time, dose: 12.5 mg/kg/injection, schedule: Q04DX002 (ip), vehicle: saline with Tween-80); 93 % of control (endpoint: mean survival time, dose: 25.0 mg/kg/injection, schedule: Q04DX002 (ip), vehicle: saline with Tween-80); 108 % of control (endpoint: mean survival time, dose: 50.0 mg/kg/injection, schedule: Q04DX002 (ip), vehicle: saline with Tween-80).

As to `CN(C(=O)c1cccnc1)c1ccccc1`, the T/C is 98 % of control under setting [6], 101 % of control under setting [7] and 103 % of control under setting [8].
